Laboratory results published in patent publication US4985416A, “Platinum complexes of azodiazonium dyes as anti-tumor agents” (priority 1989, dated 1991).
Read-outs that look alike come from different tables or passages of the source.

Assays:
Lewis Lung carcinoma = test: Anti-metastatic activity: lung metastases from Lewis Lung carcinoma; type: in vivo, mice; conditions: day 7, lungs day 20, control 14
Method: (§1) Anti-tumor activity of the complex prepared as described above was determined in vivo in mice by comparative tests against Fast Black dye alone and against Cis-diamminedichloroplatinum (CDDP) using the following procedure Two different solid tumor cell lines were employed, Lewis Lung and FSaII, 2×10^6 tumor cells being implanted i.m. into the legs of male C57BL/6J and C3H/He mice 8 to 10 weeks of age, respectively. The drugs were administered i.p. on day 7 after tumor implantation (when tumors were about 100 mm^3 in volume), in solution (0.5%) in 0.9% phosphate-buffered saline as carrier. Tumor growth delay is reported in Table I below as the difference in number of days for the treated tumors to reach 500 mm^3 in volume and the number of days required for untreated control tumors to reach the same volume (n=14 in each group). Tumor volume was calculated as a hemiellipsoid. In the control animals, tumors reached the specified volume in 12-14 days.
Anti-metastatic activity was determined by implanting Lewis Lung carcinoma cells in the legs of mice as described above, administering drugs in the doses indicated in Table II below, i.p. on day 7 after implantation and removing the lungs on day 20 followed by counting metastases. Control mice received no drug (n=14 in each group).

FSaII fibrosarcoma cells [1] = test: Enhancement of killing effect of heat treatment (hyperthermia) in vivo: growth delay; design: species or system mice
Method: FSaII fibrosarcoma cells (2×10^6 FSaII cells) were implanted in the legs of mice: the drug was administered i.p. when the tumor had grown to approximately 50 mm^3 in volume, using 0.9% phosphate buffered saline as carrier, as described above in the doses shown in Table 3 below. Fifteen minutes later radiation was delivered locally to the tumor bearing limb as a single dose of 10, 20, or 30 gray as indicated in the table. No anesthetic was used. The growth of each tumor was measured thrice weekly until it reached a volume of 500 mm^3. Each treatment group had 7 animals and the procedure was repeated 3 times. Tumor volume was calculated as a hemiellipsoid, and in the untreated control animals, tumors reached the specified volume in 14.0 days. The delay is reported in terms of the mean number of additional days beyond the control required for the tumors in each group to reach the specified volume. The results were as follows:
The complex was also found to be effective in enhancing the killing effect of heat treatment (hyperthermia) in vivo. The procedure described in the preceding paragraph was carried out except that there was substituted for the single radiation dose a heat treatment by immersion of the tumor-bearing limb in a water bath at 44° C. for 30 minutes to raise the tumor temperature to 43° C. The means number of days delay (n=14) was as follows: […]

Lewis Lung = test: Tumor growth delay in vivo, Lewis Lung solid tumor; design: species or system mice (C57BL/6J); conditions: day 7, to reach 500 mm^3
Method: as §1

FSaII = test: Tumor growth delay in vivo, FSaII solid tumor; design: species or system mice (C3H/He); conditions: day 7, to reach 500 mm^3
Method: as §1

FSaII fibrosarcoma cells [2] = type: in vivo, mice; conditions: 300 mg/kg i.p.
Method: Fifteen minutes later radiation was delivered locally to the tumor bearing limb as a single dose of 10, 20, or 30 gray as indicated in the table. No anesthetic was used. The growth of each tumor was measured thrice weekly until it reached a volume of 500 mm^3. […] The delay is reported in terms of the mean number of additional days beyond the control required for the tumors in each group to reach the specified volume.

carcinoma cells = conditions: in words; Bernal et al.; cited from earlier work
EMT6 cells = test: Entry of platinum into EMT6 cells; type: cell-based; conditions: in words

With N.N.[Cl][Pt][Cl] [CDDP, Cis-diamminedichloroplatinum (II)] the “Mean No. of Metastases per Animal” value (Lewis Lung carcinoma; 10 mg/kg i.p.) was 10.7 Metastases per Animal, the “Mean No. Days Delay” value (FSaII fibrosarcoma cells [1]; 5 mg/kg, heat 30 min at 43° C., heat alone 1.4) was 5.9 days and the “Mean No. Days Delay” value (FSaII fibrosarcoma cells [1]; 5 mg/kg, no heat) was 4.4 days. For the same compound, the “Mean No. Days Delay (Lewis Lung)” value (Lewis Lung; 5 mg/kg i.p.) was less than 1 days, the “Mean No. Days Delay (Lewis Lung)” value (Lewis Lung; 10 mg/kg i.p.) was less than 1 days and the “Mean No. Days Delay (FSaII)” value (FSaII; 5 mg/kg i.p.) was 4.4 days. The “Mean No. Days Delay (FSaII)” value (FSaII; 10 mg/kg i.p.) was 8.0 days.

In the case of COc1cc([N+]#N)c(OC)cc1N=Nc1ccc([N+](=O)[O-])cc1 [Fast Black], the “Mean No. of Metastases per Animal” value (Lewis Lung carcinoma; 50 mg/kg i.p.) is reported as 13.3 Metastases per Animal, the “Mean No. of Metastases per Animal” value (Lewis Lung carcinoma; 100 mg/kg i.p.) is reported as 12.3 Metastases per Animal and the “Mean No. of Metastases per Animal” value (Lewis Lung carcinoma; 250 mg/kg i.p.) is reported as 11.0 Metastases per Animal. The “Mean No. Days Delay” value (FSaII fibrosarcoma cells [2]; 0 Gray) was 3.0 days, the “Mean No. Days Delay” value (FSaII fibrosarcoma cells [2]; 10 Gray 15 min later, radiation alone 1.8) was 7.0 days and the “Mean No. Days Delay” value (FSaII fibrosarcoma cells [2]; 20 Gray 15 min later, radiation alone 6.3) was 12.6 days. For the same compound, the “Mean No. Days Delay” value (FSaII fibrosarcoma cells [2]; 30 Gray 15 min later, radiation alone 8.8) was 16.2 days, the “Mean No. Days Delay” value (FSaII fibrosarcoma cells [1]; 300 mg/kg, heat 30 min at 43° C., heat alone 1.4) was 4.4 days and the “Mean No. Days Delay” value (FSaII fibrosarcoma cells [1]; 300 mg/kg, no heat) was 2.7 days. For the same compound, the “Mean No. Days Delay (Lewis Lung)” value (Lewis Lung; 250 mg/kg i.p.) was 2.0 days and the “Mean No. Days Delay (FSaII)” value (FSaII; 250 mg/kg i.p.) was 2.7 days.

In the case of COC(=O)c1ccccc1-c1c2ccc(=N)cc-2oc2cc(N)ccc12 [Rhodamine 123], the “selective toxicity toward carcinoma cells” value (carcinoma cells) is given as “selectively toxic toward carcinoma cells”.

For [Cl][Pt-2]([Cl])([Cl])[Cl].[K+].[K+] [potassium tetracloroplatinate, potassium tetrachloroplatinate], the “entry of platinum into the cells” value (EMT6 cells) was “only very poor entry of platinum into the cells”.
